According to article PMC9865825, “Synthesis and Antiparasitic Activity of New Trithiolato-Bridged Dinuclear Ruthenium(II)-arene-carbohydrate Conjugates” (Molecules, 2023):
Where two headings read alike, the source gives them in different places.

What was measured:
[1] = system: human foreskin fibroblasts (HFF); parameters: method as in PMID 34144354, PMID 32347622, doi:10.3390/inorganics9080059, PMID 36500266; details: cited from earlier work; for HFF Viability (%): non-infected HFF, vs 0.1% DMSO control = 100%; for HFF Viability at 2.5 µM (%): control 0.25% DMSO = 100%
[2] = system: T. gondii β-gal tachyzoites; parameters: method as in PMID 34144354, PMID 32347622, doi:10.3390/inorganics9080059, PMID 36500266; details: cited from earlier work; for T. Gondii β-gal Growth (%): tachyzoites in HFF, vs 0.1% DMSO control = 100%
[3] = system: T. gondii β-gal tachyzoites; assay: In vitro proliferation of T. gondii β-gal tachyzoites in HFF, β-galactosidase colorimetric test (primary screening and IC50); type: cell-based, Toxoplasma gondii; details: for T. Gondii β-gal Growth (%): 72 h, tachyzoites in HFF, vs 0.1% DMSO control = 100%; for IC50: eight serial concentrations 7 nM to 1 µM; for IC50 fold lower compared to pyrimethamine: T. gondii β-gal, pyrimethamine IC50 = 0.326 µM
Description: In a primary screening, each compound was evaluated at two concentrations 0.1 and 1 µM and added to the media prior to the infection as previously described. Control non-infected non-treated HFF cultures and T. gondii β-gal infected but not-treated cultures were cultivated in complete medium containing 0.01 or 0.1% DMSO. The 96-well plates were incubated for 72 h at 37 °C/5% CO2 as previously described.
For the IC50 determination on T. gondii β-gal, eight serial concentrations ranging from 7 nM to 1 μM were tested for each selected compound as previously described and the β-galactosidase assay was performed as reported. Briefly, infected HFF cultures in 96-well plates were lysed with PBS containing 0.05% Triton X-100. Then the substrate chlorophenolred-β-D-galactopyranoside (CPRG; Roche Diagnostics, Rotkreuz, Switzerland) was added in a final concentration of 0.5 mM. Absorption was measured at 570 nm wavelength using an EnSpire® multimode plate reader (PerkinElmer, Inc., Waltham, MA, USA).

in vitro = details: human
Description: (§1) The viability of treated HFF was measured by the alamarBlue metabolic assay, and the proliferation of T. gondii β-gal was quantified by the β-galactosidase colorimetric test. In both cases, results are expressed as percentage (%) compared to control parasitic and host cells treated with 0.1% DMSO for which proliferation and viability were set to 100% (Table 1).
(§2) All tissue culture media were purchased from Gibco-BRL, and biochemical agents from Sigma-Aldrich. […] Transgenic T. gondii β-gal tachyzoites (expressing the β-galactosidase gene from Escherichia coli) from RH strain were kindly provided by Prof.
(§3) The screening sequence for the compounds was described in previous reports. All compounds were prepared as 1 mM stock solutions from powder in dimethyl sulfoxide (DMSO, Sigma, St. Louis, MO, USA). For in vitro activity and cytotoxicity assays, HFF were seeded at 5 × 10^3/well in 96 well plates and allowed to grow to confluence in complete culture medium at 37 °C and 5% CO2.
(§4) All calculations were performed using the corresponding software tool contained in the Excel software package (Microsoft, Redmond, WA, USA). […] Then the medium was removed, the plates were washed once with PBS and 200 μL of resazurin (1:200 dilution in PBS) were added to each well. […] Fluorescence was measured at two different time points: T0 as starting timepoint and T5h as at 5 h later. Relative fluorescence units were calculated from time points with linear increases.

[4] = system: human foreskin fibroblasts (HFF); assay: in vitro
Description: as §1, §2, §3, §4

[5] = Stability in DMSO-d6 followed by 1H NMR; details: 25 °C, 5 min and more than 1 month after sample preparation

Row | SMILES | HFF Viability (%) ([1]; 0.1 µM) | HFF Viability (%) ([1]; 1 µM) | T. Gondii β-gal Growth (%) ([2]; 0.1 µM) | T. Gondii β-gal Growth (%) ([2]; 1 µM) | IC50 [2] [nM] | T. Gondii β-gal Growth (%) ([3]; 0.1 µM) | T. Gondii β-gal Growth (%) ([3]; 1 µM) | IC50 [3] [nM] | HFF Viability (%) ([4]; 0.1 µM) | HFF Viability (%) ([4]; 1 µM) | also measured
1 | CC(C)(C)c1ccc(C[S-])cc1.CC(C)(C)c1ccc(C[S-])cc1.Cc1ccc(C(C)C)cc1.Cc1ccc(C(C)C)cc1.Oc1ccc([S-])cc1.[Cl-].[Ru+2].[Ru+2] [Compound 2] | 76 ± 6 | 46 ± 6 | 66 ± 14 | 2 ± 0 | 117 | – | – | – | – | – | HFF Viability at 2.5 µM (%) [1]: 56%
2 | CC(C)(C)c1ccc(C[S+]2[Ru-]3[S+](Cc4ccc(C(C)(C)C)cc4)[Ru-]2[S+]3c2ccc(N)cc2)cc1.Cc1ccc(C(C)C)cc1.Cc1ccc(C(C)C)cc1.[Cl-] (centres unmarked) [Compound 3] | 74 ± 2 | 48 ± 1 | 57 ± 1 | 2 ± 0 | 153 | – | – | – | – | – | HFF Viability at 2.5 µM (%) [1]: 51%
3 | CC(C)(C)c1ccc(C[S-])cc1.CC(C)(C)c1ccc(C[S-])cc1.Cc1ccc(C(C)C)cc1.Cc1ccc(C(C)C)cc1.O=C(O)Cc1ccc([S-])cc1.[Cl-].[Ru+2].[Ru+2] [Compound 4] | 91 ± 4 | 73 ± 1 | 114 ± 2 | 110 ± 2 | – | – | – | – | – | – | –
4 | CC(C)(C)c1ccc(C[S+]2[Ru-]3[S+](Cc4ccc(C(C)(C)C)cc4)[Ru-]2[S+]3c2ccccc2CO)cc1.Cc1ccc(C(C)C)cc1.Cc1ccc(C(C)C)cc1.[Cl-] (centres unmarked) [Compound 5] | 80 ± 1 | 69 ± 6 | 2 ± 0 | 1 ± 0 | 38 | – | – | – | – | – | HFF Viability at 2.5 µM (%) [1]: 4%
5 | C#CCCCC(=O)Oc1ccc([S-])cc1.CC(C)(C)c1ccc(C[S-])cc1.CC(C)(C)c1ccc(C[S-])cc1.Cc1ccc(C(C)C)cc1.Cc1ccc(C(C)C)cc1.[Cl-].[Ru+2].[Ru+2] [Compound 6] | – | – | – | – | – | 4 ± 0 | 0 ± 0 | 23 | – | – | –
6 | C#CCCCC(=O)Nc1ccc([S+]2[Ru-]3[S+](Cc4ccc(C(C)(C)C)cc4)[Ru-]2[S+]3Cc2ccc(C(C)(C)C)cc2)cc1.Cc1ccc(C(C)C)cc1.Cc1ccc(C(C)C)cc1.[Cl-] (centres unmarked) [Compound 7] | – | – | 21 ± 2 | 0 ± 0 | 38 | – | – | – | – | – | –
7 | C#CCNC(=O)Cc1ccc([S-])cc1.CC(C)(C)c1ccc(C[S-])cc1.CC(C)(C)c1ccc(C[S-])cc1.Cc1ccc(C(C)C)cc1.Cc1ccc(C(C)C)cc1.[Cl-].[Ru+2].[Ru+2] [Compound 8] | 71 ± 2 | 46 ± 6 | 52 ± 13 | 3 ± 1 | – | – | – | – | – | – | –
8 | CC(C)(C)c1ccc(C[S+]2[Ru-]3[S+](Cc4ccc(C(C)(C)C)cc4)[Ru-]2[S+]3c2ccccc2CN=[N+]=[N-])cc1.Cc1ccc(C(C)C)cc1.Cc1ccc(C(C)C)cc1.[Cl-] (centres unmarked) [Compound 9] | 96 ± 1 | 64 ± 1 | 9 ± 1 | 1 ± 1 | 48 | – | – | – | – | – | HFF Viability at 2.5 µM (%) [1]: 11%
9 | CC(=O)OC[C@H]1O[C@@H](N=[N+]=[N-])[C@H](OC(C)=O)[C@@H](OC(C)=O)[C@@H]1OC(C)=O [Compound 10, 2,3,4,6-tetra-O-acetyl-β-D-glucopyranosyl azide] | – | – | – | – | – | 101 ± 1 | 99 ± 0 | – | – | – | viability at 72 h, 0.1 µM (in vitro): 98 ± 1%; viability at 72 h, 1 µM (in vitro): 99%; Antiparasitic activity (in words) ([3]; 0.1 and 1 µM): neither antiparasitic activity
10 | CC(=O)OC[C@H]1O[C@@H](n2cc(CCCC(=O)Oc3ccc([S-])cc3)nn2)[C@H](OC(C)=O)[C@@H](OC(C)=O)[C@@H]1OC(C)=O.CC(C)(C)c1ccc(C[S-])cc1.CC(C)(C)c1ccc(C[S-])cc1.Cc1ccc(C(C)C)cc1.Cc1ccc(C(C)C)cc1.[Cl-].[Ru+2].[Ru+2] [Compound 19] | – | – | – | – | – | 9 ± 1 | 0 ± 0 | 18 | 102 ± 1 | 97 ± 1 | HFF Viability at 2.5 µM (%) [4]: 29%
11 | CC(=O)OC[C@H]1O[C@@H](n2cc(CCCC(=O)Nc3ccc([S-])cc3)nn2)[C@H](OC(C)=O)[C@@H](OC(C)=O)[C@@H]1OC(C)=O.CC(C)(C)c1ccc(C[S-])cc1.CC(C)(C)c1ccc(C[S-])cc1.Cc1ccc(C(C)C)cc1.Cc1ccc(C(C)C)cc1.[Cl-].[Ru+2].[Ru+2] [Compound 20] | – | – | – | – | – | 100 ± 1 | 1 ± 2 | 110 | 98 ± 1 | 99 ± 0 | HFF Viability at 2.5 µM (%) [4]: 77%; Stability in DMSO-d6 (1H NMR spectra) [5]: no significant modifications
12 | CC(=O)OC[C@H]1O[C@@H](OCCn2cc(CCCC(=O)Nc3ccc([S-])cc3)nn2)[C@H](OC(C)=O)[C@@H](OC(C)=O)[C@@H]1OC(C)=O.CC(C)(C)c1ccc(C[S-])cc1.CC(C)(C)c1ccc(C[S-])cc1.Cc1ccc(C(C)C)cc1.Cc1ccc(C(C)C)cc1.[Cl-].[Ru+2].[Ru+2] [Compound 21] | – | – | – | – | – | 87 ± 1 | 1 ± 0 | 87 | 100 ± 1 | 101 ± 0 | –
13 | CC(=O)OC[C@H]1O[C@@H](OCCn2cc(CCCC(=O)Nc3ccc([S-])cc3)nn2)[C@H](OC(C)=O)[C@@H](OC(C)=O)[C@H]1OC(C)=O.CC(C)(C)c1ccc(C[S-])cc1.CC(C)(C)c1ccc(C[S-])cc1.Cc1ccc(C(C)C)cc1.Cc1ccc(C(C)C)cc1.[Cl-].[Ru+2].[Ru+2] [Compound 22] | – | – | – | – | – | 73 ± 1 | 2 ± 0 | 298 | 100 ± 0 | 101 ± 0 | HFF Viability at 2.5 µM (%) [4]: 73%; Stability in DMSO-d6 (1H NMR spectra) [5]: no significant modifications
14 | CC(=O)OC[C@H]1O[C@@H](OCCCn2cc(CCCC(=O)Nc3ccc([S-])cc3)nn2)[C@H](OC(C)=O)[C@@H](OC(C)=O)[C@H]1OC(C)=O.CC(C)(C)c1ccc(C[S-])cc1.CC(C)(C)c1ccc(C[S-])cc1.Cc1ccc(C(C)C)cc1.Cc1ccc(C(C)C)cc1.[Cl-].[Ru+2].[Ru+2] [Compound 23] | – | – | – | – | – | 85 ± 1 | 1 ± 0 | 32 | 99 ± 1 | 101 ± 1 | HFF Viability at 2.5 µM (%) [4]: 92%; IC50 fold lower compared to pyrimethamine [3]: 10 fold
15 | CC(=O)OC[C@H]1O[C@@H](OCCCc2cn(Cc3ccccc3[S-])nn2)[C@H](OC(C)=O)[C@@H](OC(C)=O)[C@@H]1OC(C)=O.CC(C)(C)c1ccc(C[S-])cc1.CC(C)(C)c1ccc(C[S-])cc1.Cc1ccc(C(C)C)cc1.Cc1ccc(C(C)C)cc1.[Cl-].[Ru+2].[Ru+2] [Compound 25] | – | – | – | – | – | 75 ± 2 | 27 ± 0 | – | 98 ± 1 | 97 ± 1 | Stability in DMSO-d6 (1H NMR spectra) [5]: no significant modifications
16 | CC(=O)OC[C@H]1O[C@@H](OCCCc2cn(Cc3ccccc3[S-])nn2)[C@H](OC(C)=O)[C@@H](OC(C)=O)[C@H]1OC(C)=O.CC(C)(C)c1ccc(C[S-])cc1.CC(C)(C)c1ccc(C[S-])cc1.Cc1ccc(C(C)C)cc1.Cc1ccc(C(C)C)cc1.[Cl-].[Ru+2].[Ru+2] [Compound 26] | – | – | – | – | – | 89 ± 1 | 0 ± 0 | 153 | 98 ± 1 | 99 ± 1 | HFF Viability at 2.5 µM (%) [4]: 97%; Stability in DMSO-d6 (1H NMR spectra) [5]: no significant modifications; IC50 fold lower compared to pyrimethamine [3]: 2 fold
17 | CCc1nc(N)nc(N)c1-c1ccc(Cl)cc1 [Pyrimethamine, reference compound] | – | – | – | – | 326 | – | – | – | – | – | –
